Square brackets hold non-standard residues; d marks the D form. Peptide text beside a SMILES is read from it. Nle = CCCC[C@H](N)C(=O)O; Orn = NCCC[C@H](N)C(=O)O
Target: T1, NK-2 receptor (Oryctolagus cuniculus, UniProt P79218)
T1 construct: This preparation is isolated rabbit pulmonary artery, in which tachykinins produce dose-related contraction; from tissue; host or cells: isolated rabbit pulmonary artery
T1 sequence (P79218 1-384): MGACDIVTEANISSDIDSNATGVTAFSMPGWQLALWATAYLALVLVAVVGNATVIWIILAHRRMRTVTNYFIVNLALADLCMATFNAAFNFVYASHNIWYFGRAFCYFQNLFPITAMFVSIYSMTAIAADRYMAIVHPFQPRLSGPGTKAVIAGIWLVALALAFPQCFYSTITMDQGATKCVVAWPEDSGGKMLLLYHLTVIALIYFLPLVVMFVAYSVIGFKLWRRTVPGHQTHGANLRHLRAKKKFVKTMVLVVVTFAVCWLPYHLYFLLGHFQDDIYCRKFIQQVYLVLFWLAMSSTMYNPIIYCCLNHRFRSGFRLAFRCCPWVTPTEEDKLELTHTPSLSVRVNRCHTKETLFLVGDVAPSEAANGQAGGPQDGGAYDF
Experiment: Antagonism of NKA-induced contraction in isolated rabbit pulmonary artery
Format: cell-based
Conditions: inhibition of the response to NKA (3 nM), 10⁻⁶M concentration of each compound
Procedure: The ability of the peptides described in the present invention to interact with the neurokinin A receptor as agonists or antagonists was evaluated in an in-vitro study using a preparation in which the biological response produced by tachykinins and related peptides is determined exclusively from the neurokinin A receptor (NK-2 receptor). This preparation is isolated rabbit pulmonary artery, in which tachykinins produce dose-related contraction (Rovero et al., Neuropeptides, 1989, 13: 263-270). The activity of the peptides in this preparation was determined using a concentration of NKA (3 nM) that produces a response equivalent to 45% of the maximum. The peptides that are the subject of the present application were added to the preparation in increasing concentrations and their activity evaluated in terms of inhibition of the response to NKA.
Antagonist biological activity on the NK-2 receptor in isolated rabbit pulmonary artery of the peptides described.

inhibition [%]	SMILES
95	CC(C)[C@@H]1NC(=O)[C@@H](Cc2c[nH]c3ccccc23)NC(=O)[C@H](Cc2ccc(O)cc2)NC(=O)[C@H](CC(=O)O)NC(=O)[C@H](CCCNC(=N)N)NC(=O)[C@@H](Cc2c[nH]c3ccccc23)NC(=O)[C@@H](Cc2c[nH]c3ccccc23)NC1=O [Cyclo[AspTyrDTrpValDTrpDTrpArg], cyclo[AspTyrDTrpValDTrpDTrpArg]] (cyclo(DY[dW]V[dW][dW]R))
95	CC(C)[C@@H]1NC(=O)[C@@H](Cc2c[nH]c3ccccc23)NC(=O)[C@H](Cc2ccc(O)cc2)NC(=O)[C@H](CC(=O)O)NC(=O)[C@H](CCCCN)NC(=O)[C@@H](Cc2c[nH]c3ccccc23)NC(=O)[C@@H](Cc2c[nH]c3ccccc23)NC1=O [Cyclo[AspTyrDTrpValDTrpDTrpLys], cyclo[AspTyrDTrpValDTrpDTrpLys]] (cyclo(DY[dW]V[dW][dW]K))
100	CC(C)[C@H](NC(=O)[C@@H](Cc1c[nH]c2ccccc12)NC(=O)[C@H](Cc1ccc(O)cc1)NC(=O)[C@@H](N)CC(=O)O)C(=O)N[C@H](Cc1c[nH]c2ccccc12)C(=O)N[C@H](Cc1c[nH]c2ccccc12)C(=O)N[C@@H](C)C(N)=O [H-Asp-Tyr-DTrp-Val-DTrp-DTrp-Ala-NH₂] (H-DY[dW]V[dW][dW]A-NH2)
100	CC(C)[C@H](NC(=O)[C@@H](Cc1c[nH]c2ccccc12)NC(=O)[C@H](Cc1ccc(O)cc1)NC(=O)[C@@H](N)CC(=O)O)C(=O)N[C@H](Cc1c[nH]c2ccccc12)C(=O)N[C@H](Cc1c[nH]c2ccccc12)C(=O)N[C@@H](CCC(=O)O)C(N)=O [H-Asp-Tyr-DTrp-Val-DTrp-DTrp-Glu-NH₂] (H-DY[dW]V[dW][dW]E-NH2)
100	CC(C)[C@H](NC(=O)[C@@H](Cc1c[nH]c2ccccc12)NC(=O)[C@H](Cc1ccc(O)cc1)NC(=O)[C@@H](N)CC(=O)O)C(=O)N[C@H](Cc1c[nH]c2ccccc12)C(=O)N[C@H](Cc1c[nH]c2ccccc12)C(=O)NCC(N)=O [H-Asp-Tyr-DTrp-Val-DTrp-DTrp-Gly-NH₂] (H-DY[dW]V[dW][dW]G-NH2)
100	CC(C)C[C@H](NC(=O)[C@@H](Cc1c[nH]c2ccccc12)NC(=O)[C@@H](Cc1c[nH]c2ccccc12)NC(=O)[C@@H](NC(=O)[C@@H](Cc1c[nH]c2ccccc12)NC(=O)[C@H](Cc1ccc(O)cc1)NC(=O)[C@@H](N)CC(=O)O)C(C)C)C(N)=O [H-Asp-Tyr-DTrp-Val-DTrp-DTrp-Leu-NH₂] (H-DY[dW]V[dW][dW]L-NH2)
100	CC(C)[C@H](NC(=O)[C@@H](Cc1c[nH]c2ccccc12)NC(=O)[C@H](Cc1ccc(O)cc1)NC(=O)[C@@H](N)CC(=O)O)C(=O)N[C@H](Cc1c[nH]c2ccccc12)C(=O)N[C@H](Cc1c[nH]c2ccccc12)C(=O)N[C@@H](CCCCN)C(N)=O [H-Asp-Tyr-DTrp-Val-DTrp-DTrp-Lys-NH₂] (H-DY[dW]V[dW][dW]K-NH2)
100	CCCC[C@H](NC(=O)[C@@H](Cc1c[nH]c2ccccc12)NC(=O)[C@@H](Cc1c[nH]c2ccccc12)NC(=O)[C@@H](NC(=O)[C@@H](Cc1c[nH]c2ccccc12)NC(=O)[C@H](Cc1ccc(O)cc1)NC(=O)[C@@H](N)CC(=O)O)C(C)C)C(N)=O [H-Asp-Tyr-DTrp-Val-DTrp-DTrp-Nle-NH₂] (H-DY[dW]V[dW][dW][Nle]-NH2)
100	CC(C)[C@H](NC(=O)[C@@H](Cc1c[nH]c2ccccc12)NC(=O)[C@H](Cc1ccc(O)cc1)NC(=O)[C@@H](N)CC(=O)O)C(=O)N[C@H](Cc1c[nH]c2ccccc12)C(=O)N[C@H](Cc1c[nH]c2ccccc12)C(=O)N[C@@H](CCCN)C(N)=O [H-Asp-Tyr-DTrp-Val-DTrp-DTrp-Orn-NH₂] (H-DY[dW]V[dW][dW][Orn]-NH2)

— patent EP0541662B1, “SYNTHETIC PEPTIDES THAT ANTAGONIZE NEUROKININ A, THEIR SALTS AND THEIR MANUFACTURING PROCESSES” (A. MENARINI INDUSTRIE FARMACEUTICHE RIUNITE S.R.L., priority 1990, dated 1992)
